Laboratory results from paper PMC4396983 (Bioorganic & medicinal chemistry, 2015).

Legend:
[1] = target: T1, human recombinant LSD1 (Homo sapiens, UniProt O60341); conditions: previous studies ref 8; cited from earlier work
[2] = target: T1, human recombinant LSD1; test: Recombinant LSD1 inhibition assay; assay type: biochemical; conditions: 10 μM

Row | Structure (SMILES) | Effect on LSD1 activity [2] | Mode of inhibition [1]
1 | Cl.N=C(NCCCNCCCCCCCNCCCNC(=N)NC(=N)NCCC(c1ccccc1)c1ccccc1)NC(=N)NCCC(c1ccccc1)c1ccccc1 [Compound 2, verlindamycin] |  | non-competitive inhibitor
2 | Cl.O=C(NCCCNCCCCCNCCCNC(=O)Nc1ccccc1)Nc1ccccc1 [Compound 7a, 1,13-bis-{3-[1-(phenyl)ureido]}-4,10-diazatridecane dihydrochloride] | increase in the activity of LSD1 | 

Continued, in another order:

Row | Effect on LSD1 activity [2] | Structure (SMILES) | Mode of inhibition [1]
3 | increase in the activity of LSD1 | CCNC(=O)NCCCNCCCCCCNCCCNC(=O)NCC.Cl.Cl [Compound 9a] | 
4 | increase in the activity of LSD1 | CCCNC(=O)NCCCNCCCCCCNCCCNC(=O)NCCC.Cl.Cl [Compound 9b] | 
5 | increase in the activity of LSD1 | Cl.Cl.O=C(NCCCNCCCCCCNCCCNC(=O)NCc1ccccc1)NCc1ccccc1 [Compound 9d] | 
